The supplement of paper PMC10307832

Key:
Assay in all cases: relative viability (nuclei count vs DMSO), 5 days (fraction); higher = more cells survive
QS11 + Navitoclax = compound: C1CC2=C(C1)C=C(C=C2)OC3=NC(=C4C(=N3)N(C=N4)CC5=CC=C(C=C5)C6=CC=CC=C6)N[C@@H](CC7=CC=CC=C7)CO [QS11] + CC1(C)CCC(c2ccc(Cl)cc2)=C(CN2CCN(c3ccc(C(=O)NS(=O)(=O)c4ccc(N[C@H](CCN5CCOCC5)CSc5ccccc5)c(S(=O)(=O)C(F)(F)F)c4)cc3)CC2)C1 [Navitoclax] (partner 0.5 µM)
Outline: (§1)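 For relative viability, nuclei counts in treated wells were divided by those in vehicle wells. Lung cancer cell lines had been pin-tool dosed in 1536-well plates the day after seeding and cultured for 5 days, then fixed and stained in one step (final 0.05% Triton X-100, 1% formaldehyde, 1 ug/ml Hoechst) and imaged at 4×. Doses were one drug alone or a fixed anchor-drug dose plus five library-drug doses (not always all listed) in √10 steps, and values are duplicate-plate medians.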

QS11 + Alpelisib = compound: C1CC2=C(C1)C=C(C=C2)OC3=NC(=C4C(=N3)N(C=N4)CC5=CC=C(C=C5)C6=CC=CC=C6)N[C@@H](CC7=CC=CC=C7)CO [QS11] + Cc1nc(NC(=O)N2CCC[C@H]2C(N)=O)sc1-c1ccnc(C(C)(C)C(F)(F)F)c1 [Alpelisib] (partner 2 µM)
Outline: as §1

AZ628 + Trametinib = compound: CC1=C(C=C(C=C1)NC(=O)C2=CC(=CC=C2)C(C)(C)C#N)NC3=CC4=C(C=C3)N=CN(C4=O)C [AZ628] + CC(=O)Nc1cccc(-n2c(=O)n(C3CC3)c(=O)c3c(Nc4ccc(I)cc4F)n(C)c(=O)c(C)c32)c1 [Trametinib] (partner 0.02 µM)
Outline: as §1

AZ628 + Olaparib = compound: CC1=C(C=C(C=C1)NC(=O)C2=CC(=CC=C2)C(C)(C)C#N)NC3=CC4=C(C=C3)N=CN(C4=O)C [AZ628] + O=C(c1cc(Cc2n[nH]c(=O)c3ccccc23)ccc1F)N1CCN(C(=O)C2CC2)CC1 [Olaparib] (partner 8 µM)
Outline: as §1

Cell Line | relative viability (QS11 + Navitoclax; first compound 0.08 µM) | relative viability (QS11 + Navitoclax; first compound 0.253 µM) | relative viability (QS11 + Navitoclax; first compound 0.8 µM) | relative viability (QS11 + Navitoclax; first compound 2.53 µM) | relative viability (QS11 + Navitoclax; first compound 8 µM) | relative viability (QS11 + Alpelisib; first compound 0.08 µM) | relative viability (QS11 + Alpelisib; first compound 0.253 µM) | relative viability (QS11 + Alpelisib; first compound 0.8 µM) | relative viability (QS11 + Alpelisib; first compound 2.53 µM) | relative viability (QS11 + Alpelisib; first compound 8 µM) | relative viability (AZ628 + Trametinib; first compound 0.08 µM) | relative viability (AZ628 + Trametinib; first compound 0.253 µM) | relative viability (AZ628 + Trametinib; first compound 0.8 µM) | relative viability (AZ628 + Trametinib; first compound 2.53 µM) | relative viability (AZ628 + Trametinib; first compound 8 µM) | relative viability (AZ628 + Olaparib; first compound 0.08 µM) | relative viability (AZ628 + Olaparib; first compound 0.253 µM) | relative viability (AZ628 + Olaparib; first compound 0.8 µM) | relative viability (AZ628 + Olaparib; first compound 2.53 µM) | relative viability (AZ628 + Olaparib; first compound 8 µM)
HCC-827 | 0.987 | 1.01 | 0.833 | 0.944 | 0.899 | 0.907 | 1.02 | 0.931 | 1.05 | 1.01 | 0.352 | 0.348 | 0.3 | 0.342 | 0.316 | 0.652 | 0.621 | 0.704 | 0.661 | 0.528
LXF-289 | 0.98 | 0.948 | 0.715 | 0.859 | 0.619 | 1.07 | 1.05 | 0.764 | 0.906 | 0.85 | 0.603 | 0.477 | 0.472 | 0.525 | 0.38 | 1.13 | 1.01 | 0.922 | 1.08 | 0.756
NCI-H727 | 0.389 | 0.346 | 0.47 | 0.301 | 0.328 | 0.509 | 0.99 | 0.593 | 0.54 | 0.325 | 0.338 |  |  | 0.385 | 0.357 | 0.603 |  |  | 0.506 | 0.333
NCI-H322M | 1.21 | 1.21 | 1.22 | 1.35 | 1.26 | 0.84 | 0.83 | 0.87 | 0.863 | 0.867 | 0.473 | 0.511 | 0.489 | 0.536 | 0.617 | 0.805 | 0.755 | 0.819 | 0.774 | 0.783
NCI-H2126 | 0.867 | 0.796 | 0.67 | 0.823 | 0.62 | 0.74 | 0.794 | 0.708 | 0.75 | 0.731 | 0.559 | 0.512 | 0.498 | 0.562 | 0.481 | 0.932 | 0.875 | 0.874 | 0.935 | 0.972
NCI-H2405 | 0.778 | 0.757 | 0.901 | 0.894 | 0.768 | 0.709 | 0.745 | 0.884 | 0.998 | 0.902 | 0.387 | 0.319 | 0.277 | 0.286 | 0.313 | 0.661 | 0.792 | 0.572 | 0.646 | 0.555
NCI-H1944 | 1.06 | 1.1 |  | 1.07 | 0.973 | 0.794 | 0.896 |  | 0.826 | 0.846 | 0.321 | 0.305 | 0.254 | 0.295 | 0.33 | 0.416 | 0.42 | 0.411 | 0.329 | 0.365
NCI-H520 |  | 1.06 | 1.23 | 1.22 | 1.14 |  | 0.912 | 0.921 | 0.92 | 0.986 | 0.469 | 0.459 | 0.273 | 0.23 | 0.16 | 0.358 | 0.32 | 0.325 | 0.396 | 0.23
NCI-H2228 | 0.852 | 1.1 | 0.483 | 0.756 | 1.29 | 0.705 | 0.854 | 0.762 | 1.14 | 1.11 | 0.34 | 0.316 | 0.263 | 0.129 | 0.12 | 0.585 | 0.583 | 0.847 | 0.698 | 0.541
EKVX | 0.957 | 0.863 |  | 0.891 | 1.1 | 0.895 | 0.821 |  | 0.86 | 0.906 | 0.368 | 0.227 | 0.248 | 0.273 | 0.195 | 0.926 | 0.768 | 0.947 | 0.914 | 0.79
